Source: a melting point compilation (Tetko et al.; mined from patent text by program, amines drawn as free bases though some values may be those of a salt)

| melting point [°C] | Structure (SMILES) |
| --- | --- |
| 100 to 101 | O=[N+]([O-])c1cccc(OCc2ccccc2)c1[N+](=O)[O-] |
| 185 to 186 | CC(=O)Nc1ccc(C(=O)C=CN(C)C)cc1 |
| 264 to 267 | CCc1nc2cc(OC)c(OC)cc2c(-c2ccc(OC)c(OC)c2)c1C(=O)O |
| 109 to 110 | COCOc1ccccc1-c1cc(-c2ccccc2C(=O)OC)c(C#N)c(N)n1 |
| 185 | O=C(NCC12CC3CC(CC(C3)C1)C2)c1cccc([N+](=O)[O-])c1Cl |
| 111 to 115 | N#Cc1cn(C(CO)CCc2ccccc2)cn1 (centres undefined) |
| 185 to 186 | NS(=O)(=O)c1c(-c2ccccc2)sc2ccccc12 |
| 65 to 66 | ClCCCCOc1ccc(Br)c(CCOCc2ccccc2)c1 |
| 111 to 112 | COc1cc(NCCCCCC(=O)NCC(C)C)c2nccc(C)c2c1 |
| 250 to 253 | N=C(NO)c1ccc(-c2ccc(-c3nc4cc(C(=N)NO)ccc4[nH]3)cc2)c(OCc2ccccc2)c1 |
| 119 to 121 | COC(=O)CC(Nc1ccccc1OC)c1ccc2ccccc2n1 (centres undefined) |
| 217 to 219 | O=[N+]([O-])c1cnc(-c2nc3ccccc3[nH]2)n1CCO |
| 249 to 251 | COc1c(C(=O)NN=Cc2ccc(Cl)cc2)[nH]c2ccccc12 |
| 230 to 233 | Cc1cc(-c2ccc(Cl)cc2)nnc1Cl |
| 115 to 117 | O=C(O)c1cc2cc(Br)cc(Br)c2nc1NC(Cc1ccccc1)C(=O)O (centres undefined) |
| 166 to 167 | COc1cc(OC)cc(C(=O)N2CCN(C(=O)C3=Cc4cc(OC)c(OC)cc4CC3)CC2)c1 |
| 243 to 244 | COc1ccc(C(=O)Oc2ccc(C(=O)O)c(O)c2)cc1C12CC3CC(CC(C3)C1)C2 |
| 192 to 194 | COc1ccc(S(=O)(=O)N2c3ccc(Br)cc3-c3ccccc3C2C)cc1 (centres undefined) |
| 58 to 60 | CCCSc1nc(-c2ccc(OC)cc2)c(-c2ccc(OC)cc2)s1 |
| 148 to 151 | N#Cc1ccc(Oc2ccc(CC(=O)O)cc2)nc1 |
| 66 to 67.5 | COC(=O)C=Cc1c(O)cccc1C#CCCCCOC1CCCCO1 (racemic) |
| 86 to 88 | CN(C)C(=O)OC1CCN(c2ncc(-c3ccccc3Cl)cn2)CC1 |
| 123 to 126 | Nc1c([N+](=O)[O-])cnn1-c1c(F)c(F)c(C(F)(F)F)c(F)c1F |
| 89 to 90 | Cc1oc(-c2ccccc2)nc1COc1cccc(N)c1 |

| melting point [°C] | Structure (SMILES) |
| --- | --- |
| 196 to 197 | COc1ccc(S(=O)(=O)N2CCc3cccc(-c4ccncc4)c32)cc1 |
| 136 to 141 | CCOc1ccc(F)c(N=Cc2cnc(SC)nc2NC2CCCC2)c1F |
| 101 | O=C1C(CCC(O)c2ccc(F)cc2)C(c2ccc(-c3ccccc3O)cc2)N1c1ccc(F)cc1 (centres undefined) |
| 232 to 233 | CC(C)(N)c1ccc(-c2nc(Nc3ccc(-n4ccnc4)cc3)ncc2C#N)cc1 |
| 212 to 215 | Cc1ccccc1C(=O)Nc1ccc(C(=O)N2Cc3cccn3Cc3ccccc32)cc1 |
| > 250 | COc1ccc(NC(=O)c2c(Cl)cccc2Cl)c2nccc(NNC(C)=O)c12 |
| 128 to 129 | CCOc1ccc2c(c1)c(I)c1n2CCC1 |
| 185 to 186 | COc1cc(/C=C/c2nc3ccccc3c(=O)o2)ccc1OC(C)=O |
| > 300 | COc1ccc(-c2[nH]nc3c2C(=O)c2c(NC(=O)Nc4ccncc4)cccc2-3)cc1 |
| 89 to 91 | CCC(C)(C)c1c(OCc2ncnn2C)nn2c(-c3ccccc3F)nncc12 |
| 279 to 280 | O=C(O)c1ccc(/C=C/c2ccc(O)c(C34CC5CC(CC(C5)C3)C4)c2)cc1 |
| 190 to 193 | Cc1cccc(Nc2cc(Nc3ccc(OCC(=O)N(C)C)c(Cl)c3)ncn2)c1 |
| 199 to 201 | CC1=CC(c2ccc(Cl)c(Cl)c2)C2=C(CCCC2=O)N1 (centres undefined) |
| 128 to 130 | COc1ccc(-c2ncc(N(C)CCCCOCC(=O)O)nc2-c2ccc(OC)cc2)cc1 |
| 215 to 217 | Cc1cccc(N2CCN(c3ccnc4sc(C(N)=O)c(N)c34)CC2C)c1 (centres undefined) |
| 78 | CN1C(C)(C)CC(O)C(O)C1(C)C (centres undefined) |
| 98 to 100 | COc1cc2c(cc1C)CCN=C2C1(c2ccco2)CC1 |
| 138 to 139 | CC(O)(C(=O)Nc1ccc(C(=O)c2ccccc2)cc1F)C(F)(F)F (centres undefined) |
| 272 to 274 | CC(C)NC1=NS(=O)(=O)c2cc(Cl)sc2N1 |
| 191 to 193 | CCCc1nn(CC)c2c(=O)[nH]c(-c3cc(S(=O)(=O)N4CCN(CCO)CC4)ccc3OCC)nc12 |
| 231 | O=C1Nc2ccc(C(O)c3ccc(Cl)cc3)cc2C(c2cccc(Cl)c2)N1 (centres undefined) |
| 47 to 49 | N#CC1CCCn2cccc21 (centres undefined) |
| 234 to 237 | COc1ccc(C(=O)Nc2ccc(C(C)(C)CNC(C)=O)c(-c3cccnc3)c2)cc1OC |
| 201 to 202 | Cc1c2c(c(Cc3ccc(C(C)C)cc3)c(C)c1NC(=O)CC(C)(C)C)OCC2 |

| melting point [°C] | Structure (SMILES) |
| --- | --- |
| 194 to 196 | CCCCCS(=O)(=O)NC(=O)/C=C/c1ccc(OCCCS(C)(=O)=O)cc1Oc1ncc(C(F)(F)F)cc1Cl |
| 145 to 146 | c1ccc2c(c1)C[C@H]1CSC(=Nc3csc4ncccc34)N1C2 |
| 61 to 63 | Oc1ccccc1CNCc1cccc(CNCc2ccccc2O)c1 |
| 211 to 212 | CSc1nc(N)c(N)c(=O)n1C |
| 135 to 138 | S=C=Nc1ccc2oc(-c3ccc(CN4CCOCC4)s3)nc2c1 |
| 173 to 175 | CCOC(=O)c1cc(Cl)cc(NCS(=O)(=O)c2ccc(Cl)cc2)c1Cl |
| 140 to 141 | CNC(=O)c1cc(-c2ccc(OC)c(F)c2)nn(CC2CC2)c1=O |
| 83.5 to 84.5 | Cc1cc(C(F)(F)F)n2nc(SCc3ccccc3)nc2n1 |
| 214 to 215 | C=CCOc1c(Cl)cc(-c2ccc(=O)[nH]n2)cc1Cl |
| 131 to 133 | CC(C)c1cc(C=CC(=O)Nc2ccc(C(=O)O)cc2)oc1C(C)C |
| 108 to 112 | CC1OC(=O)N(C(=O)NCCCN2CCC(c3ccc(F)cc3)CC2)C1c1ccc(F)c(F)c1 (centres undefined) |
| 145 | CC(=O)c1nnn(C[C@@H]2C[C@@H](S)CN2S(=O)(=O)c2ccc3ccccc3c2)c1C |
| 109 to 112 | Nc1ncc(-c2ccccc2)nc1Sc1ccccc1 |
| 70 to 73 | Cc1c(Cl)ccc2cc(C(F)(F)F)c(C(F)(F)F)nc12 |
| 127 to 130 | COc1ccc(NCC(=O)N2CCC(Oc3ccc(Cl)cc3)CC2)cc1 |
| 114 to 116 | Cc1nc2ccccc2c(=O)n1CCCl |
| 154 to 156 | CC1(C)CC(=O)c2cc(C#N)c(NC3CCCC3)nc2C1 |
| 296 to 297 | O=c1[nH]c2ncc(-c3ccc(O)cc3)nc2n1CC1CCCC1 |
| 68 to 69 | OC(=S)CCc1ccc(F)cc1 |
| 221 to 223 | C[C@H](Cn1ncnn1)n1cnc2cc3c(=O)n(C4CC4)cnc3cc2c1=O |
| > 285 | CCOC(=O)C(=O)N1CCCc2c1ccc1[nH]c(=O)c(=O)[nH]c21 |
| 214 to 215 | Cc1ccc(Cc2cnc(NCCCCNc3ccc(Cl)cn3)[nH]c2=O)cn1 |
| 129 to 132 | CCOCc1nc2c(N)nc3ccccc3c2n1NCCC(C)C |
| 218 | CCOC(=O)COc1ccc(NC(=O)c2cnc(NC(=N)N)s2)cc1 |

| melting point [°C] | Structure (SMILES) |
| --- | --- |
| 234 to 236 | COc1cc(Nc2c(C#N)cnc3cc(-c4csc(C5OCCO5)c4)ccc23)c(Cl)cc1Cl |
| 229 to 231 | CCOC(=O)c1c(C#N)c2c(c3[nH]c4ccccc4c13)CCC2 |
| 115 to 118 | CC(=O)NC1(c2ccccc2)CCN(CC[C@@H](c2ccc(Cl)c(Cl)c2)[C@@H](O)c2ccnn2-c2ccccc2)CC1 (racemic) |
| 178 to 179 | O=[N+]([O-])c1ccc(N=Nc2ccc(O)c(CO)c2)cc1 |
| 102 to 104 | CC(C)c1cc(Oc2ccc(Cl)cc2)nc(C(C)C)c1[N+](=O)[O-] |
| > 250 | O=C(O)c1ccc2cc(-c3cc4ccccc4o3)ccn2c1=O |
| 159 to 160 | CON1C=C(C)N=C(NC(=O)NS(=O)(=O)c2ccccc2C=CC(F)(F)F)N1 |
| 100 to 102 | C=C1CN(c2c(F)cc3c(=O)c(C(=O)O)cn([C@@H]4C[C@@H]4F)c3c2OC)C[C@@]1(C)N |
| 228 to 230 | CC(=O)Nc1cccc(-c2csc(NC(N)=S)n2)c1C |
| 238 to 242 | CSCC[C@H](NC(=O)[C@@H]1CCC(=O)N1)C(=O)N[C@@H](C)C(=O)N[C@H](C(=O)N[C@@H](CCCCN)C(=O)O)C(C)C |
| 239 to 240 | N#Cc1ccsc1C1=CC(=O)Nc2cc(-c3ccc(F)cc3)ccc2N1 |
| 151 to 156 | CSC(=C[N+](=O)[O-])NCCSCc1csc(NC(=N)N)n1 |
| 192 to 194 | O=C(NO)c1ccc(C(=O)NOCc2cccc3ccccc23)cc1 |
| 112 to 114 | CCOC(=O)C1=C(COCc2nnn(CCNc3ccc(S(=O)(=O)N4CCOCC4)cn3)n2)NC(C)=C(C(=O)OC)C1c1cccc(Cl)c1Cl (centres undefined) |
| 222 to 224 | CCCCC(=O)c1[nH]c(=O)[nH]c1C |
| 54 to 56 | O=C(CCCO)NCCO |
| 176 to 178 | O=C1N(Cc2ccc(C(F)(F)F)o2)c2cc3c(cc2C12COc1cc4c(cc12)OCCO4)OCCO3 (centres undefined) |
| 153 to 167 | CC(C)(C)c1ccc(/C=C/C(=O)Nc2ccc3c(c2)NCC3)cc1 |
| 185 | [O-][N+]#Cc1c(Cl)ccc2cc(Cl)cnc12 |
| 210 | CC(O)=C(C#N)C(=O)N1CCN(c2ccc(NC(=O)c3cnn(-c4ccc(F)cc4)c3C)cc2C#N)CC1 |
| 79 to 81 | O=C(Nc1ccc(O)cn1)C(CC1CCCC1)c1ccc(Cl)c(Cl)c1 (centres undefined) |

| Structure (SMILES) | melting point [°C] |
| --- | --- |
| CC(=O)Nc1ccccc1C(=O)Nc1ccc(N2CCN3CCC2CC3)cc1 | 191 |
| CN(C)C1(c2ccccc2)CCC(CNC(=O)Oc2ccccc2)CC1 (centres undefined) | 108 to 124 |
| Cc1ncc(CN2CC=C(c3ccc(F)cc3)CC2)c(N)n1 | 176 to 178 |
| CN1CC(CNC(=S)NC(=O)c2ccccc2)CC2c3cccc4[nH]cc(c34)CC21 (centres undefined) | 153 to 155 |
| Cc1c2c(c(C)c3c1NC(C)(C)C3)OC(C)(CN1CCC(N(C)c3nc4ccccc4s3)CC1)C2 (centres undefined) | 147 to 150 |
| CCOC(=O)C(=NO)C1=Nc2ccc(Cl)cc2C(c2ccccc2Cl)=NC1 | 219 to 221 |
